# Results published in US11634688B2, “Methods and compositions for inducing hematopoietic cell differentiation” (FATE THERAPEUTICS, INC., priority 2015, dated 2023).
# How the values were obtained:
# [1] = system: Day 10 CD34+ iHE sorted cells; assay: stromal-free NK cell differentiation on plate-bound DLL4, hiPSC-derived iHE; assay type: cell-based, human; conditions: plate bound DLL4 vs control protein; CD45+ gating
# [2] = system: umbilical cord blood CD34+ cells; assay: stromal-free NK cell differentiation on plate-bound DLL4, umbilical cord blood CD34+ cells; conditions: plate-bound DLL4 vs stromal-based and stromal-free control cultures; 10-15 days
# Experimental: Specific to NK cells, enriched umbilical cord blood CD34+ cells were plated in iNK-A serum-free differentiation media containing SCF, Flt3L, IL3, IL15 and IL7 in culture plates containing DLL4 protein or control protein. After 5 days the iNK-B medium was maintained to complete NK cell differentiation. After approximately 10-15 days of culture, the culture was assessed for the generation of NK cell progenitors and the absence of myeloid cells. CD56, CD7 and CD161 are the first cell surface markers to be expressed during NK cell development. CD11b and CD14 are cell surface markers expressed on myeloid cell subsets. FIG. 29 depicts stromal-free differentiation of umbilical cord blood CD34+ cells towards NK cells. […] Early NK lineage markers identify the presence of proNK cells as defined by CD56, CD7 and CD161 and the absence of myeloid markers CD11b and CD14.
# hiPSCs = assay: generation of CD34+ HE from hiPSC monolayer differentiation, flow cytometry at about D10; assay type: cell-based, human
# Experimental: The above iHSC platform was further optimized for hematopoietic lineage cells differentiation. To initiate differentiation towards the hematopoietic lineage, hiPSCs were seeded as a monolayer on Day (D) 0 in the maintenance medium and allowed to adhere and expand for about 24 hours. At this point, the maintenance medium was removed and replaced with base medium without maintenance factors at D1. Hematopoietic differentiation was initiated at around D2 by switching the culture medium to iCD34-A (see FIG. 12). […] The monolayers were maintained until around D5-D6 at which point they were dissociated into single cells and seeded as a low density monolayer in iCD34-C medium until differentiation around D10. Low oxygen tension (2-10% O2) was maintained from the onset of hematopoietic differentiation around D2 up until around D10 of differentiation.
# During the culture process, the directed differentiation towards the hematopoietic lineage was monitored by the dissociation of the monolayers into single cells and analysis for the surface marker expression of CD34, and optionally, CD43, CD45, CXCR4 and CD73 (FIG. 15A). At around D8 of differentiation, the appearance of a cell population representing HE was observed by the cell surface expression signature CD34+. CD43−CXCR4−CD73− was also observed in the CD34+ cells. The CD34+ population was maintained until around D10 (FIG. 15A). At D10, which time point can be shortened to about D9 or extended until about D12, the cells were dissociated into single cells and the CD34+ HE population was sorted by FACS using a BD FACS Aria for further analysis and functional assessment. […]
# To optimize the efficient generation of HE from hiPSCs after around 10 days of differentiation several parameters were examined. The optimal plating density of the monolayers at DO of differentiation was assessed by plating increasing amounts of hiPSCs from 7.5×10^4/well to 1.5×10^5/well on matrigel™-coated 6 well culture dishes and then analyzing the generation of the CD34+ HE population at about D10. […]
# The effect of the concentration of BMP4 modulation during the initial stages of hematopoietic differentiation on the generation of HE was assessed by treating the cultures with increasing concentrations of BMP4 ranging from 0 ng/ml to 30 ng/ml from about D2 to about D6 of differentiation. The generation of HE at D10 was assessed by the detection of the CD34+ HE population.
# The Wnt pathway activator CHIR99021 is responsible for the induction of the definitive hematopoetic program from hiPSCs. The effect of the modulation of CHIR during the induction phase of the hematopoietic differentiation protocol was assessed by treating the cultures with increasing concentrations of CHIR from about D3.75 to about D6. […]
# [3] = CHIR from about D3.75 to about D6
molecule,measurement,setting,value
"DLL4: Notch activator, plate-bound DLL4 protein",differentiation of NK cell progenitors and myeloid cells,[1],supports the differentiation of CD56+CD7+CD161+ NK cell progenitors but not CD11b+myeloid cells
same,differentiation of CD56+CD7+CD161+ NK cell progenitors,[2],supports a more rapid and efficient differentiation of CD56+CD7+CD161+ NK cell progenitors
IGF1: insulin-like growth factor 1,effect of addition of IGF1 and EPO on percentage of HE at around D10,hiPSCs; IGF1 and EPO added together at Day 8,decreases the percentage of HE
"Cc1c[nH]c(-c2cnc(NCCNc3ccc(C#N)cn3)nc2-c2ccc(Cl)cc2Cl)n1 [CHIR99021, reference compound]",effect of increasing CHIR99021 concentration on percentage of HE subpopulation,hiPSCs; [3],decreases the percentage of the HE subpopulation
same,effect of increasing CHIR99021 concentration on total percentage of CD34+ cells,hiPSCs; [3],increases the total percentage of CD34+ cells
"BMP4: bone morphogenetic protein, BMP pathway activator (protein, UniProt P12644 293-408, looked up) Bone morphogenetic protein 4: SPKHHSQRARKKNKNCRRHSLYVDFSDVGWNDWIVAPPGYQAFYCHGDCPFPLADHLNSTNHAIVQTLVNSVNSSIPKACCVPTELSAISMLYLDEYDKVVLKNYQEMVVEGCGCR",optimal concentration of BMP4 for HE population at D10,"hiPSCs; BMP4 0 ng/ml to 30 ng/ml from about D2 to about D6, CD34+ HE at D10",about 3 ng/mL
